These molecules were tested on Allergic Conjunctivitis Model (assay: Alleviating action for allergic conjunctivitis model (Itch-Scratch response after OA challenge)). Conditions: OA-sensitized Wistar rats; positive control 0.3 w/v % suspension in physiological saline dropped into the eyes 10 minutes before OA challenge; scratching counted over 20 minutes after OA.
Assay type: in vivo
Experimental: or the experiment, Wistar rats (CLEA Japan) were used. The rats were sensitized by intraperitoneal administration of ovalbumin (OA, made by Sigma) in an amount of 100 μg and 10 mg of aluminum hydroxide (Alum, made by Pierce Co.) suspended in 1 mL of physiological saline. Allergic conjunctivitis was induced using rats after 3 weeks from the date of sensitization by dropping into the eyes of 10 μg OA solution prepared by physiological saline to a concentration of 30 mg/mL. The medicine was suspended at a concentration of 1.0 w/v % in physiological saline and dropped into the eyes 10 minutes before OA challenge to induce conjunctivitis (as a positive control drug, diphenhydramine suspended in a concentration of 0.3 w/v % in physiological saline was dropped in the eyes 10 minutes before OA challenge to induce conjunctivitis). For the effect of the compound, the number of times of the action of using the hind legs to scratch the eye area (Itch-Scratch response; considered to be an indicator of itchiness) observed in the 20-minute period after dropping the OA was counted and used to find the rate of inhibition of itchiness by the following formula: Control group: presensitized rats in whose eyes physiological saline is dropped 10 minutes before using OA to induce conjunctivitis Untreated group: unsensitized rats in whose eyes physiological saline is dropped. Calculation Formula: Inhibition rate(%)=100−(test substance group−untreated group/(control group−untreated group)×100

With `CN(C)CCOC(c1ccccc1)c1ccccc1` [Diphenhydramine, diphenhydramine, reference compound] the “Inhibition rate (%) of Itch-Scratch response” value (from here on “Inhibition rate (%)”) was 64.6%.

Same assay, conditions: OA-sensitized Wistar rats; test substance 1.0 w/v % suspension in physiological saline dropped into the eyes 10 minutes before OA challenge; scratching counted over 20 minutes after OA

First: COc1ccc(NC2=C(C)C(=O)CC2)cc1O[C@H]1C[C@@H]2CC[C@H]1C2 [Compound 5, (+)-3-[3-[(1S,2S,4R)-bicyclo[2.2.1]hept-2-yloxy]-4-methoxyanilino]-2-methyl-2-cyclopenten-1-one]
Second: COc1ccc(NC2=C(C)C(=O)CC2)cc1O[C@@H]1C[C@H]2CC[C@@H]1C2 [Compound 4, (−)-3-[3-[(1R,2R,4S)-bicyclo[2.2.1]hept-2-yloxy]-4-methoxyanilino]-2-methyl-2-cyclopenten-1-one]
The “Inhibition rate (%)” value of the first is higher: 97.1% for the first, 68.6% for the second.

Compared with `COc1ccc(N(Cc2ccc3ccccc3c2)C2=CC(=O)CC2)cc1OC1CCCC1` [Compound 1, 3-[3-cyclopentyloxy-4-methoxy-N-(2-naphthylmethyl)anilino]-2-cyclopenten-1-one], `CCC1=C(Nc2ccc(OC)c(O[C@@H]3C[C@H]4CC[C@@H]3C4)c2)CCC1=O` (racemic) [Compound 3, 3-[3-[(1RS,2RS,4SR)-bicyclo[2.2.1]hept-2-yloxy]-4-methoxyanilino]-2-ethyl-2-cyclopenten-1-one] is lower in “Inhibition rate (%)” value: 82.7% for the first, 63.5% for the second.

In the case of `COc1ccc(NC2=C(C)C(=O)CC2)cc1O[C@@H]1C[C@H]2CC[C@@H]1C2` (racemic) [Compound 2, 3-[3-[(1RS,2RS,4SR)-bicyclo[2.2.1]hept-2-yloxy]-4-methoxyanilino]-2-methyl-2-cyclopenten-1-one], the “Inhibition rate (%)” value was 62.9%.

From US7772258B2, “Agent for treatment of allergic eye disease” (Nikken Chemicals Co., Ltd., priority 2001, dated 2010)
